This is an account of results in paper PMC13253105, “Chemical inhibition of a CBASS anti-bacteriophage defense” (iScience, 2026).

Assay [1] deals with PsCap5 (Pseudomonas syringae pv. actinidiae, UniProt A0A2P0QGK5). In words: biochemical. As to conditions: for inhibition of PsCap5 in rescreening of the compound library: normalized DNA band intensity, threshold 0.25.
Assay [2] addresses LlCap5 (Lactococcus cremoris, UniProt A0A1E7G0A2). The assay can be described thus: biochemical. Further details: species or system Lactococcus lactis.
Assay [3] has as its system PsCap5 in E. coli BL21 (DE3) cells. In kind it is cell-based.
Experimental: The same E. coli BL21 (DE3) cells carrying the PsCap5 expression plasmid from above were grown in LB medium with 50 μg/mL kanamycin at 37°C with 220 rpm shaking to an OD600 of ∼0.6 (1 cm pathlength). […] The bacterial cultures were then serially diluted from 10-1 to 10−6, and 5 μL of each was spotted onto LB agar petri dishes supplemented with kanamycin. After overnight incubation, the plates were photographed and colonies formed by viable cells were counted.
In assay [4] the target is DpnI (Streptococcus pneumoniae serotype 4, UniProt P0A459). Format: biochemical. As to conditions: 1 μL 100 μM inhibitor 20 in 10 μL buffer.
Chain of DpnI (P0A459 whole entry, looked up): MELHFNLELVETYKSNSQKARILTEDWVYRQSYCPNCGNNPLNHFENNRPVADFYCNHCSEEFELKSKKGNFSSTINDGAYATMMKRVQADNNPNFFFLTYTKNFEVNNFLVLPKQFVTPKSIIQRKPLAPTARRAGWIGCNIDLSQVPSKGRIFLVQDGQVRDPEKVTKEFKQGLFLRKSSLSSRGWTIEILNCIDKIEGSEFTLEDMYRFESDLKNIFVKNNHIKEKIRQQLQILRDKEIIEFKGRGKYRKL
Assay [5] has as its target Cas9 (Streptococcus pyogenes serotype M1, UniProt Q99ZW2). Format: biochemical. The note with it: inhibitor 20 (100 µM).

Where two headings read alike, the source gives them in different places. Where a SMILES comes first, the peptide text is derived from it. The star is where a group is joined. Cbz = O=C(OCc1ccccc1)*; Bn = c1ccc(C*)cc1

Chain of PsCap5 (A0A2P0QGK5 10-397 limits assumed): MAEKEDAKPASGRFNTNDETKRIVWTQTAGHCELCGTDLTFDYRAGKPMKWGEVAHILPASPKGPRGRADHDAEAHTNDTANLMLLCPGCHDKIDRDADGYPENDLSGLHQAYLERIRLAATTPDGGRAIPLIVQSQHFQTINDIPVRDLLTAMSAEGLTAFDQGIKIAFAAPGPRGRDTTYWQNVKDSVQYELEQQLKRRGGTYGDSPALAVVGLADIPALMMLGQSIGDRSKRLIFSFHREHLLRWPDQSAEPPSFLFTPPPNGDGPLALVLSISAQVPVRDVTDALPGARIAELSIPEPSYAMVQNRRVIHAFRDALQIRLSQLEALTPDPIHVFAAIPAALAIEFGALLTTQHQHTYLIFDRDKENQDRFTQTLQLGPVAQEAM
Chain of LlCap5 (A0A1E7G0A2 1-385): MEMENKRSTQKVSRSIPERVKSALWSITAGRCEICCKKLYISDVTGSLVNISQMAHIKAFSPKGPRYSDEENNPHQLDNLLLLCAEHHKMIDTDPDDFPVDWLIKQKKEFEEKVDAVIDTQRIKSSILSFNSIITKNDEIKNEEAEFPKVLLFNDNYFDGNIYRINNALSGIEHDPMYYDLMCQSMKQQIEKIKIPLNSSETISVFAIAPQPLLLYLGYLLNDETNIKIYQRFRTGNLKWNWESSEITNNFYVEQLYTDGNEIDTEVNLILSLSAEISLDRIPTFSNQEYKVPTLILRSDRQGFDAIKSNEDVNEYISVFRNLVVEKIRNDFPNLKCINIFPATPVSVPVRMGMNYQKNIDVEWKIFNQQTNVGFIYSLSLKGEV
Chain of Cas9 (Q99ZW2 whole entry, looked up): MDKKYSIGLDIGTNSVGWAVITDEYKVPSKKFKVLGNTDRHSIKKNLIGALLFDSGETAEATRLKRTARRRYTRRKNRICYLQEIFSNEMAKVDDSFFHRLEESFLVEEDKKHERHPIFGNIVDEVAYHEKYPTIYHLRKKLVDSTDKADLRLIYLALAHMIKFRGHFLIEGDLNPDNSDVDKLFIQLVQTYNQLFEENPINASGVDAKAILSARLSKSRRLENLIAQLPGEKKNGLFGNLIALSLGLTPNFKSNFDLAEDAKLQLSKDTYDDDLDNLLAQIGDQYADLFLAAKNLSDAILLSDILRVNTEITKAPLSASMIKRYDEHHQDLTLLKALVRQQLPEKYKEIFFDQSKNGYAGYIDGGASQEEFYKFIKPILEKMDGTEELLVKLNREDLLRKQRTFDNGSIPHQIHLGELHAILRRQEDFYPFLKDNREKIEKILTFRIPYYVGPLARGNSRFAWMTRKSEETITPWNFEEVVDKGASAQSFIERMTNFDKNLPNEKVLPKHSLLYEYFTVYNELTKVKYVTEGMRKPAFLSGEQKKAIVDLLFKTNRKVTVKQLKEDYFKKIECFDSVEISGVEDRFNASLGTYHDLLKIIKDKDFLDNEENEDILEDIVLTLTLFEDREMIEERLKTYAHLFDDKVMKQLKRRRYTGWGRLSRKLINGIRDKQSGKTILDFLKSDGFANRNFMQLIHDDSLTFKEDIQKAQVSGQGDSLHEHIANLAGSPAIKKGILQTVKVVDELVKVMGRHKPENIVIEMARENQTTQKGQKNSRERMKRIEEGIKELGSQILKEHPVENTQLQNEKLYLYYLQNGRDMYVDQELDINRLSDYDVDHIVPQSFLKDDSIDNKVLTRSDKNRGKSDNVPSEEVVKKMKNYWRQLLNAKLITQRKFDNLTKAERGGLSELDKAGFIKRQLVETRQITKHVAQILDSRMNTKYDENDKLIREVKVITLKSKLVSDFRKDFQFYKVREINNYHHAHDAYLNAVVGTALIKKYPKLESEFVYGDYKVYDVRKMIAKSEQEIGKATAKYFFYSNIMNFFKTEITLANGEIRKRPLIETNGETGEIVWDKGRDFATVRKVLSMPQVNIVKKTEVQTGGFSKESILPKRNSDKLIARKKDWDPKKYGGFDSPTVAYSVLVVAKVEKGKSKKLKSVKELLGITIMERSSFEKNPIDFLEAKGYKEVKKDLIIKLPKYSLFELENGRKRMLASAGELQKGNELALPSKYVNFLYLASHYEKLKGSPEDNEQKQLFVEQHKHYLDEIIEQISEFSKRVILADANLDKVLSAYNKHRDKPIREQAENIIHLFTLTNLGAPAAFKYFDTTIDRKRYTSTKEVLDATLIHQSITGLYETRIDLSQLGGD

Usually IC50 stands for the concentration needed to halve the response being measured. On to `COC(=O)C(NC(=O)C(Cc1ccc(OCc2ccccc2)cc1)NC(=O)C(Cc1ccccc1)NC(=O)CNC(=O)OCc1ccccc1)C(C)O` (stereo not shown) [Compound 22] (Cbz-GFY(Bn)T-OMe; configuration not given here), for which the “inhibition of PsCap5 in rescreening of the compound library” value (shortened to “inhibition of PsCap5”) in assay [1] is given as “did not noticeably inhibit PsCap5”. Moreover, half-maximal inhibition in assay [2] (IC50) required 58 ± 16 µM.
Turning to `Cc1ccc(CNC(=O)c2ccc(Cn3c(=O)c4ccccc4n(CC(=O)NCc4ccco4)c3=O)cc2)cc1` [Compound 20], in assay [3] (0.33 mM compound 20, 0.2 mM 3′,2′-cGAMP, 37°C 3 h), the “recovery of viable cells (bacterial population)” value is on record as about 100 fold. For the same compound, the “inhibition of DpnI” value in assay [4] is reported as “failed to inhibit”. Further, the concentration for half-maximal inhibition (IC50) is 24 ± 8 µM in assay [1] and 120 ± 60 µM in assay [2]. Moreover, the “inhibition of Cas9” value in assay [5] is listed as “failed to inhibit Cas9”.
As to 3′,2′-cGAMP [reference compound], the “bacterial growth of E. coli carrying PsCap5 plasmid after extrinsic addition of activating ligand” value in assay [3] was “severe restriction of bacterial growth”.
Regarding `NS(=O)(=O)c1ccc(CCNC(=O)CSc2nc3ccccc3c(=O)n2Cn2c(SCC(=O)NCCc3ccc(S(N)(=O)=O)cc3)nc3ccccc3c2=O)cc1` [Compound 4], the “rescue of E. coli from cGAMP-Cap5-induced toxicity” value in assay [3] is “failed to rescue”. For the same compound, the IC50 in assay [1] (read-out: IC50 against PsCap5, 50 nM PsCap5, 10 nM 3′,2′-cGAMP, 37°C 15 min, ±S.E.M. of biological triplicates) is 11 ± 1 µM. Besides, the “inhibition of LlCap5 in biochemical screening” value in assay [2] (normalized DNA band intensity, threshold for activity 0.4) was “inactive against LlCap5”.
Regarding `Cn1c(=O)[nH]c(=O)c2c1nc(SCCSc1nc3c(c(=O)[nH]c(=O)n3C)n1CCc1ccccc1)n2CCc1ccccc1` [Compound 36], the IC50 came to 100 ± 20 µM in assay [1] and 140 ± 20 µM in assay [2].
In the case of `O=C(CCN1C(=O)c2ccccc2C1=O)NCCCCCCNC(=O)CCN1C(=O)c2ccccc2C1=O` [Compound 19], the “inhibition of PsCap5” value in assay [1] is given as “did not noticeably inhibit PsCap5”. In assay [2], the IC50 is over 100 µM.
For the compound `NS(=O)(=O)c1ccc(CCNC(=O)CCCn2c(SCc3cc(=O)n4cc(Br)ccc4n3)nc3ccsc3c2=O)cc1` [Compound 2], the “inhibition of PsCap5” value in assay [1] is “did not noticeably inhibit PsCap5”. The compound further showed an IC50 in assay [2] of 230 ± 10 µM.
As for `NC(=O)[C@H](Cc1ccc(O)cc1)NC(=O)[C@H](CCCCNC(=O)OCc1ccccc1)NC(=O)OCc1ccccc1` [Compound 37], the figures for the IC50 in assay [1] and in assay [2] were 150 ± 40 µM and 260 ± 70 µM, respectively.
